Species: Rattus norvegicus
Experiment: Open TG-GATES - Regimen: Daily Repeat
Assay type: toxicity, organism-based, Sprague-Dawley
Set-up: regimen Daily Repeat, gender Male, age 6 weeks
Settings: in vivo, po, 100 mg/kg, route gavage, dose level High; for APTT / Bas / Eos / Fbg / Hb / Ht / Lym / MCH / MCHC / MCV / Mono / Neu / PT / Plat / RBC / Ret / WBC: tissue Blood; for KIDNEY_L / KIDNEY_R / KIDNEY_TOTAL: tissue Kidney; for LIVER: tissue Liver; for ALP / ALT / AST / BUN / CRE / Ca / DBIL / GLC / IP / K / LDH / Na / PL / RALB / TBIL / TC / TG / TP / gamma-GTP: tissue Plasma

Question: What does the source list for `CSc1ccc2c(c1)N(CCC1CCCCN1C)c1ccccc1S2` (centres undefined) [THIORIDAZINE]?
Answer: TERMINAL_BW (72 h, time 3 day): 219.1 g; APTT (72 h, time 3 day): 15.9 s; Bas (72 h, time 3 day): 0%; Eos (72 h, time 3 day): 1%; Fbg (72 h, time 3 day): 196.2 mg/dL; Hb (72 h, time 3 day): 13.9 g/dL; Ht (72 h, time 3 day): 41.9%; Lym (72 h, time 3 day): 81.4%; MCH (72 h, time 3 day): 21.4 pg; MCHC (72 h, time 3 day): 33.2%; MCV (72 h, time 3 day): 64.4 fL; Mono (72 h, time 3 day): 5.4%; Neu (72 h, time 3 day): 12.2%; PT (72 h, time 3 day): 11.9 s; Plat (72 h, time 3 day): 117.8 x10_4/uL; RBC (72 h, time 3 day): 651.2 x10_4/ul; Ret (72 h, time 3 day): 6.1%; WBC (72 h, time 3 day): 136.4 x10_2/uL; KIDNEY_L (72 h, time 3 day): 1 g; KIDNEY_R (72 h, time 3 day): 1 g; KIDNEY_TOTAL (72 h, time 3 day): 2 g; LIVER (72 h, time 3 day): 12.2 g; ALP (72 h, time 3 day): 887.2 IU/L; ALT (72 h, time 3 day): 40 IU/L; AST (72 h, time 3 day): 63.2 IU/L; BUN (72 h, time 3 day): 19.4 mg/dL; CRE (72 h, time 3 day): 0.5 mg/dL; Ca (72 h, time 3 day): 10.9 mg/dL; DBIL (72 h, time 3 day): 0.062 mg/dL; GLC (72 h, time 3 day): 187.6 mg/dL; IP (72 h, time 3 day): 9.4 mg/dL; K (72 h, time 3 day): 4.5 meq/L; LDH (72 h, time 3 day): 158.8 IU/L; Na (72 h, time 3 day): 139.8 meq/L; PL (72 h, time 3 day): 164 mg/dL; RALB (72 h, time 3 day): 4 g/dL; TBIL (72 h, time 3 day): 0.2 mg/dL; TC (72 h, time 3 day): 84 mg/dL; TG (72 h, time 3 day): 92.4 mg/dL; TP (72 h, time 3 day): 5.9 g/dL; gamma-GTP (72 h, time 3 day): 1.6 IU/L; TERMINAL_BW ([…], time 7 day): 252.6 g; TERMINAL_BW ([…], time 14 day): 299.8 g; TERMINAL_BW ([…], time 28 day): 349.4 g; APTT ([…], time 7 day): 16.5 s; Bas ([…], time 7 day): 0%; Eos ([…], time 7 day): 0.2%; Fbg ([…], time 7 day): 213 mg/dL; Hb ([…], time 7 day): 14.3 g/dL; Ht ([…], time 7 day): 43.2%; Lym ([…], time 7 day): 80%; MCH ([…], time 7 day): 21.3 pg; MCHC ([…], time 7 day): 33.1%; MCV ([…], time 7 day): 64.2 fL; Mono ([…], time 7 day): 7.6%; Neu ([…], time 7 day): 12%; PT ([…], time 7 day): 12.3 s; Plat ([…], time 7 day): 98.4 x10_4/uL; RBC ([…], time 7 day): 672 x10_4/ul; Ret ([…], time 7 day): 4.6%; WBC ([…], time 7 day): 144.8 x10_2/uL; APTT ([…], time 14 day): 17.8 s; Bas ([…], time 14 day): 0%; Eos ([…], time 14 day): 0.8%; Fbg ([…], time 14 day): 242.8 mg/dL; Hb ([…], time 14 day): 15.2 g/dL; Ht ([…], time 14 day): 45.7%; Lym ([…], time 14 day): 75%; MCH ([…], time 14 day): 20.8 pg; MCHC ([…], time 14 day): 33.3%; MCV ([…], time 14 day): 62.5 fL; Mono ([…], time 14 day): 6%; Neu ([…], time 14 day): 18.2%; PT ([…], time 14 day): 11.9 s; Plat ([…], time 14 day): 112.1 x10_4/uL; RBC ([…], time 14 day): 733.4 x10_4/ul; Ret ([…], time 14 day): 4.4%; WBC ([…], time 14 day): 145.8 x10_2/uL; APTT ([…], time 28 day): 17.7 s; Bas ([…], time 28 day): 0%; Eos ([…], time 28 day): 0.6%; Fbg ([…], time 28 day): 225.4 mg/dL; Hb ([…], time 28 day): 15.6 g/dL; Ht ([…], time 28 day): 46.6%; Lym ([…], time 28 day): 80.4%; MCH ([…], time 28 day): 19.3 pg; MCHC ([…], time 28 day): 33.4%; MCV ([…], time 28 day): 57.7 fL; Mono ([…], time 28 day): 5.6%; Neu ([…], time 28 day): 13.8%; PT ([…], time 28 day): 12.5 s; Plat ([…], time 28 day): 92.7 x10_4/uL; RBC ([…], time 28 day): 808.8 x10_4/ul; Ret ([…], time 28 day): 2.5%; WBC ([…], time 28 day): 142.8 x10_2/uL; KIDNEY_L ([…], time 7 day): 1.2 g; KIDNEY_R ([…], time 7 day): 1.2 g; KIDNEY_TOTAL ([…], time 7 day): 2.3 g; KIDNEY_L ([…], time 14 day): 1.3 g; KIDNEY_R ([…], time 14 day): 1.3 g; KIDNEY_TOTAL ([…], time 14 day): 2.6 g; KIDNEY_L ([…], time 28 day): 1.4 g; KIDNEY_R ([…], time 28 day): 1.4 g; KIDNEY_TOTAL ([…], time 28 day): 2.8 g; LIVER ([…], time 7 day): 12.3 g; LIVER ([…], time 14 day): 13.6 g; LIVER ([…], time 28 day): 15.1 g; ALP ([…], time 7 day): 928.2 IU/L; ALT ([…], time 7 day): 34.2 IU/L; AST ([…], time 7 day): 64 IU/L; BUN ([…], time 7 day): 16 mg/dL; CRE ([…], time 7 day): 0.5 mg/dL; Ca ([…], time 7 day): 11.2 mg/dL; DBIL ([…], time 7 day): 0.008 mg/dL; GLC ([…], time 7 day): 199.8 mg/dL; IP ([…], time 7 day): 9.7 mg/dL; K ([…], time 7 day): 4.6 meq/L; LDH ([…], time 7 day): 100.2 IU/L; Na ([…], time 7 day): 141.6 meq/L; PL ([…], time 7 day): 166.8 mg/dL; RALB ([…], time 7 day): 3.8 g/dL; TBIL ([…], time 7 day): 0.4 mg/dL; TC ([…], time 7 day): 79 mg/dL; TG ([…], time 7 day): 132.4 mg/dL; TP ([…], time 7 day): 5.7 g/dL; gamma-GTP ([…], time 7 day): 1.4 IU/L; ALP ([…], time 14 day): 741.8 IU/L; ALT ([…], time 14 day): 30.4 IU/L; AST ([…], time 14 day): 61.2 IU/L; BUN ([…], time 14 day): 16.4 mg/dL; CRE ([…], time 14 day): 0.6 mg/dL; Ca ([…], time 14 day): 10.9 mg/dL; DBIL ([…], time 14 day): 0.02 mg/dL; GLC ([…], time 14 day): 178.2 mg/dL; IP ([…], time 14 day): 9.2 mg/dL; K ([…], time 14 day): 5.2 meq/L; LDH ([…], time 14 day): 189 IU/L; Na ([…], time 14 day): 142.8 meq/L; PL ([…], time 14 day): 152.2 mg/dL; RALB ([…], time 14 day): 4 g/dL; TBIL ([…], time 14 day): 0.4 mg/dL; TC ([…], time 14 day): 80.2 mg/dL; TG ([…], time 14 day): 83.4 mg/dL; TP ([…], time 14 day): 6.1 g/dL; gamma-GTP ([…], time 14 day): 1.4 IU/L; ALP ([…], time 28 day): 742.4 IU/L; ALT ([…], time 28 day): 35.4 IU/L; AST ([…], time 28 day): 55.8 IU/L; BUN ([…], time 28 day): 18.6 mg/dL; CRE ([…], time 28 day): 0.6 mg/dL; Ca ([…], time 28 day): 10.7 mg/dL; DBIL ([…], time 28 day): 0.006 mg/dL; GLC ([…], time 28 day): 176.4 mg/dL; IP ([…], time 28 day): 7.7 mg/dL; K ([…], time 28 day): 4.9 meq/L; LDH ([…], time 28 day): 115.4 IU/L; Na ([…], time 28 day): 142.6 meq/L; PL ([…], time 28 day): 160 mg/dL; RALB ([…], time 28 day): 4.1 g/dL; TBIL ([…], time 28 day): 0.2 mg/dL; TC ([…], time 28 day): 80.2 mg/dL; TG ([…], time 28 day): 111.4 mg/dL; TP ([…], time 28 day): 6.4 g/dL; gamma-GTP ([…], time 28 day): 1.6 IU/L
